Experiments:
[1] = test system: capsaicin decomposing/synthesizing enzyme; type: biochemical, Streptomyces mobaraensis IFO 13819
[2] = test system: capsaicin decomposing/synthesizing enzyme (purified enzyme); type: biochemical, Streptomyces mobaraensis IFO 13819
aminoacylase = assay: Synthesis of capsaicin analogs from vanillylamine and fatty acids with aminoacylase (comparative example); type: biochemical; conditions: vanillylamine hydrochloride 10 mM, fatty acid 100 mM, water/n-hexane, 37° C., 8 days, 0.5 mM CoCl2
Description: (§1) The reaction temperature was 37° C.
(§2) As a comparative example, aminoacylase was used. The resulting capsaicin analogs were quantitatively measured by the HPLC analysis of the hexane phases.

[3] = test system: capsaicin decomposing/synthesizing enzyme (purified enzyme from Streptomyces mobaraensis IFO13819); assay: Synthesis of capsaicin analogs from vanillylamine and fatty acids with the enzyme of the invention; type: biochemical; conditions: vanillylamine hydrochloride 10 mM, fatty acid 100 mM, 30 U enzyme, water/n-hexane, 37° C., 8 days, 0.5 mM CoCl2
Description: Next, capsaicin analogs were synthesized by using the capsaicin decomposing/synthesizing enzyme (purified enzyme from Streptomyces mobaraensis IFO13819) according to the present invention.
as §1, §2

SMILES | residual activity, cobalt ions added versus not added [1] | effect on capsaicin hydrolysis activity of the purified enzyme [2] | Synthesis of capsaicin analogs, Aminocylase (aminoacylase) [mM] | Synthesis of capsaicin analogs, Capsaicin decomposing synthesizing enzyme of the invention [3] [mM]
[Cl-].[Cl-].[Co+2] [CoCl2] | higher residual activity | enhanced |  | 
CCCCCCCCCCCC(=O)O [Lauric acid] |  |  | 0.051 | 1.25
CCCCCCCCCCCCCC(=O)O [Myristic acid] |  |  |  | 0.24
